We go through three molecules from US11028087B2, “2,6-disubstituted-9-cyclopentyl-9H-purines, use thereof as medicaments, and pharmaceutical compositions” (UNIVERZITA PALACKEHO V OLOMOUCI, priority 2017, dated 2021).

Experiment [1] concerns the target T1, FLT3-ITD (Homo sapiens, UniProt P36888).
T1 sequence (P36888 1-993): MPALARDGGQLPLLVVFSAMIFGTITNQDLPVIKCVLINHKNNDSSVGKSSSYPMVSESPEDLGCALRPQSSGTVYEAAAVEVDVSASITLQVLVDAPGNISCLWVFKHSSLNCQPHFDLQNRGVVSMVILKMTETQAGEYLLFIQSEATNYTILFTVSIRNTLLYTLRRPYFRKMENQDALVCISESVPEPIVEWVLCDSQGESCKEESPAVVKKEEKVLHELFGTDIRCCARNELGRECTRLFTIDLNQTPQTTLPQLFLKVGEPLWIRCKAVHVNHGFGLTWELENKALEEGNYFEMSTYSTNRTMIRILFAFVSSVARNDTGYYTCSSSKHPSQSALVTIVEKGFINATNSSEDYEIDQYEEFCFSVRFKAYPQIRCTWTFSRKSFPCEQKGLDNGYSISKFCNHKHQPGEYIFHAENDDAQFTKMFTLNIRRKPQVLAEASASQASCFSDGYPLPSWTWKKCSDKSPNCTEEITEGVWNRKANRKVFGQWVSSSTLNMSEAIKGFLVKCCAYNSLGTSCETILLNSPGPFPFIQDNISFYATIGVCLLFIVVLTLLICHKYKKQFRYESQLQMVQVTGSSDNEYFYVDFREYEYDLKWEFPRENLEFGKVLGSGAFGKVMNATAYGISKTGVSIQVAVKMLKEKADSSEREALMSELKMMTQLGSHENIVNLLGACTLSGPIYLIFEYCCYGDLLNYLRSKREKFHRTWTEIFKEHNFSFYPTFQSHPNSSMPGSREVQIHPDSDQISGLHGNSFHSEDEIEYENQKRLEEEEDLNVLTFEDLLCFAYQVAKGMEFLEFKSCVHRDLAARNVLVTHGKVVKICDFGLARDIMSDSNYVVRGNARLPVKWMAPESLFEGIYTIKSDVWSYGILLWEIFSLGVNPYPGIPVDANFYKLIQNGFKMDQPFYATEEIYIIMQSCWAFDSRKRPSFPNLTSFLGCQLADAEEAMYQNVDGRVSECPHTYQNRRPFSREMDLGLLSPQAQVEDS
The experiment in a line: Kinase inhibition assay with [γ-33P]ATP. In kind it is biochemical. The settings on record: comparative example; read-out: Influence of compounds on protein kinase inhibition, IC50 values (μM) FLT3 ITD. The protocol: (§1) CDK1/Cyclin B and CDK2/Cyclin E kinases were produced in Sf9 insect cells via baculoviral infection and purified on a NiNTA column (Qiagen). CDK5/p35 and CDK7Cyclin H/MAT1, FLT3 WT, FLT3-ITD and FLT3 D835 were purchased from ProQinase GmbH. The kinase reactions were assayed with 1 mg/mL histone H1 (for CDK1, CDK2 and CDK5), (YSPTSPS)2KK peptide (for CDK7) or AGLT substrate (for FLT3) in the presence of 15/15/0.15/1.5/1 μM ATP (for CDK1/CDK2/CDK5/CDK7/FLT3), 0.05 μCi [γ-^33P]ATP and of the test compound in a final volume of 10 μL, all in a reaction buffer (60 mM HEPES-NaOH, pH 7.5, 3 mM MgCl2, 3 mM MnCl2, 3 μM Na-orthovanadate, 1.2 mM DTT, 2.5 μg/50 μl PEG20,000). The reactions were stopped by adding 5 μL of 3% aq H3PO4. Aliquots were spotted onto P-81 phosphocellulose (Whatman), washed 3× with 0.5% aq H3PO4 and finally air-dried.

The target of experiment [2] is T2, CDK2/Cyclin E (Homo sapiens, UniProt P24941).
T2 construct: made in house; host or cells: Sf9 insect cells, baculoviral infection
The experiment in a line: Kinase inhibition assay with [γ-33P]ATP. The class given is biochemical. The protocol:
as §1

Experiment [3] deals with MOLM-13 (acute myeloid leukemia, FLT3-ITD positive). As to the kind of experiment: Calcein AM cytotoxicity assay. The class given is cell-based. To be noted: Homo sapiens. The text has this: (§2) Cytotoxicity of the compounds is the major property determining their anticancer effect in vivo. One of the parameters used, as the basis for cytotoxicity assays, is the integrity of cytoplasmic membrane of viable cells. For example, a microtiter assay, which uses acetomethoxy derivate of calcein (Calcein AM), is widely used for evaluation of cell proliferation and cytotoxicity. This assay is used in drug screening programs and in chemosensitivity testing. Intracellular esterases of viable cells convert calcein AM to green-fluorescent calcein of which signal corresponds to the number of viable cells in the culture.
(§3) We have been using the following cell lines: MV4-11 (acute myeloid leukemia, FLT3-ITD positive), MOLM-13 (acute myeloid leukemia, FLT3-ITD positive), THP-1 (acute myeloid leukemia, wt FLT3), U937 (monocytic leukemia, wt FLT3), EOL-1 (eosinophilic leukaemia, carrying the fusion FIP1L1-PDGFRA), H1703 (non-small cell lung carcinoma, PDGFRA amplification). […] K562 and MCF-7 cell lines were maintained in DMEM supplemented with 10% fetal bovine serum, penicilin (100 U/ml) and streptomycin (100 μg/ml). All cell lines were cultivated at 37° C. in 5% CO2. For cytotoxicity assays, cells were seeded in appropriate densities into 96 well plates and the next day tested compounds were added at various concentrations in triplicates. Three days after drug addition, Calcein AM solution (final concentration 1 μg/ml; Thermo Scientific, USA) was added into each well and incubated for 1 h.

The subject of experiment [4] is EOL-1 (eosinophilic leukaemia, carrying the fusion FIP1L1-PDGFRA). The experiment in a line: Calcein AM cytotoxicity assay. In kind it is cell-based. The settings on record: Homo sapiens.
Excerpt: as §2, §3

The subject of experiment [5] is MCF-7. As to the kind of experiment: Calcein AM cytotoxicity assay. To be noted: Homo sapiens. In kind it is cell-based.
Excerpt: as §2, §3

Experiment [6] has as its system THP-1 (acute myeloid leukemia, wt FLT3). The experiment in a line: Calcein AM cytotoxicity assay. The class given is cell-based. The settings on record: Homo sapiens.
Excerpt: as §2, §3

Experiment [7] deals with U937 (monocytic leukemia, wt FLT3). As to the kind of experiment: Calcein AM cytotoxicity assay. The class given is cell-based. The settings on record: Homo sapiens.
Excerpt: as §2, §3

Experiment [8] concerns K562. The experiment in a line: Calcein AM cytotoxicity assay. The class given is cell-based. The settings on record: Homo sapiens.
Excerpt: as §2, §3

For experiment [9], the system named is MV4-11 (acute myeloid leukemia, FLT3-ITD positive). As to the kind of experiment: Calcein AM cytotoxicity assay. The class given is cell-based. The settings on record: Homo sapiens.
Excerpt: as §2, §3

Experiment [10] has as its system Kasumi-1 (acute myeloid leukemia, KIT mutation Asn822Lys). The experiment in a line: Calcein AM cytotoxicity assay. The class given is cell-based. To be noted: Homo sapiens.
Excerpt: as §2
We have been using the following cell lines: MV4-11 (acute myeloid leukemia, FLT3-ITD positive), MOLM-13 (acute myeloid leukemia, FLT3-ITD positive), THP-1 (acute myeloid leukemia, wt FLT3), U937 (monocytic leukemia, wt FLT3), EOL-1 (eosinophilic leukaemia, carrying the fusion FIP1L1-PDGFRA), H1703 (non-small cell lung carcinoma, PDGFRA amplification). They were maintained in RPMI-1640 supplemented with 10% fetal bovine serum, penicillin (100 U/ml) and streptomycin (100 μg/ml). Kasumi-1 (acute myeloid leukemia, KIT mutation Asn822Lys) cells were cultivated in RPMI-1640 supplemented with 15% fetal bovine serum, penicillin (100 U/ml) and streptomycin (100 μg/ml). K562 and MCF-7 cell lines were maintained in DMEM supplemented with 10% fetal bovine serum, penicilin (100 U/ml) and streptomycin (100 μg/ml). All cell lines were cultivated at 37° C. in 5% CO2. For cytotoxicity assays, cells were seeded in appropriate densities into 96 well plates and the next day tested compounds were added at various concentrations in triplicates. Three days after drug addition, Calcein AM solution (final concentration 1 μg/ml; Thermo Scientific, USA) was added into each well and incubated for 1 h. After this incubation period, fluorescence of the live cells was measured at 485 nm/538 nm (ex/em) with a Fluoroskan Ascent microplate reader (Labsystems).

The target of experiment [11] is T3, FLT3 WT (Homo sapiens, UniProt P36888).
T3 construct: purchased ProQinase GmbH
T3 sequence (P36888 27-993): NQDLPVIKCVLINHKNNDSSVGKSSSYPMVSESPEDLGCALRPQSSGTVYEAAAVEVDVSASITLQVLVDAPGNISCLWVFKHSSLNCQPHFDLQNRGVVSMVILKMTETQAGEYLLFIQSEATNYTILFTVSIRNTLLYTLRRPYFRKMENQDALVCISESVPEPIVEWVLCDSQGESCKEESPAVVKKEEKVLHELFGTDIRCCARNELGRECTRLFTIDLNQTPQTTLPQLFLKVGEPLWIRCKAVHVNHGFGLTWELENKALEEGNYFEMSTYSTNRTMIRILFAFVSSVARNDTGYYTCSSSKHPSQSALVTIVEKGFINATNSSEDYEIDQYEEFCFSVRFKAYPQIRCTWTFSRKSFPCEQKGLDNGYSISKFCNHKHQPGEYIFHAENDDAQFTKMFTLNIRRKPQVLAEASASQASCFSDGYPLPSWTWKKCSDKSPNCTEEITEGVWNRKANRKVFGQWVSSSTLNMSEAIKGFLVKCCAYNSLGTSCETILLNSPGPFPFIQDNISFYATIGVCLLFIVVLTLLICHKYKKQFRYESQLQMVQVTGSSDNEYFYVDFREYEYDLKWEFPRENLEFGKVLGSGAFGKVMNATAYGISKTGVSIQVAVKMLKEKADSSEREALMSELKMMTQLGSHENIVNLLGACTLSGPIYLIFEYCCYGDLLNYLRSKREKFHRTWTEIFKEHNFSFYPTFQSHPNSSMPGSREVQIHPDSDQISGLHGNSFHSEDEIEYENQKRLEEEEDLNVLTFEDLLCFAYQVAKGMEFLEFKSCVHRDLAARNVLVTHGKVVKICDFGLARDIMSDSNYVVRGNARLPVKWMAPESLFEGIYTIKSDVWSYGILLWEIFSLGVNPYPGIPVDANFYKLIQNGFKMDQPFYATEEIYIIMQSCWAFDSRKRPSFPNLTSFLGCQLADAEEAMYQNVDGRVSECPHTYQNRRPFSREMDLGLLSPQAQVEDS
The experiment in a line: Kinase inhibition assay with [γ-33P]ATP. The class given is biochemical. The settings on record: AGLT substrate, 1 μM ATP. The protocol:
as §1

Setting [12] is: comparative example, read-out: Influence of compounds on protein kinase inhibition, IC50 values (μM) CDK2.
The mark [13] stands for this setting: comparative example, MOLM-13, 72 h, read-out: Influence of compounds on proliferation (72 h), EC50 values (μM) MOLM-13.
[14] abbreviates: comparative example, K562, 72 h, read-out: Influence of compounds on proliferation (72 h), EC50 values (μM) K562.
The mark [15] stands for this setting: comparative example, MV4-11, 72 h, read-out: Influence of compounds on proliferation (72 h), EC50 values (μM) MV4-11.

Read-outs that look alike come from different tables or passages of the source.

In the case of `NC1CCC(Nc2nc(Nc3ccc(CN4CCOCC4)cc3)c3ncn(Cc4ccccc4)c3n2)CC1` (stereo not shown) [Benzyl derivative of compound 264, reference compound], the IC50 in experiment [1] came out at 1.03 µM; in experiment [2] (setting [12]), 7.51 µM. In addition, the EC50 in [3] (setting [13]) is 1.26 µM; in [4] (EOL1, comparative example, EOL-1, 72 h, read-out: Influence of compounds on proliferation (72 h), EC50 values (μM) EOL-1), 0.491 µM; in experiment [5] (MCF7, comparative example, MCF-7, 72 h, read-out: Influence of compounds on proliferation (72 h), EC50 values (μM) MCF-7) it was 4.83 µM; in experiment [6] (comparative example, THP-1, 72 h, read-out: Influence of compounds on proliferation (72 h), EC50 values (μM) THP-1) it was 14.8 µM; in experiment [7] (U-937, comparative example, U937, 72 h, read-out: Influence of compounds on proliferation (72 h), EC50 values (μM) U937) it was 2.62 µM; in experiment [8] (setting [14]), 2.69 µM. Also, in experiment [9] (setting [15]), the EC50 is 0.393 µM.

With `NC1CCC(Nc2nc(Nc3ccc(CN4CCOCC4)cc3)c3ncn(-c4ccccc4)c3n2)CC1` (stereo not shown) [Phenyl derivative of compound 264, reference compound], the IC50 in [1] was 0.759 µM; in experiment [2] (setting [12]) it was more than 5 µM. The EC50 in experiment [10] (comparative example, Kasumi-1, 72 h, read-out: Influence of compounds on proliferation (72 h), EC50 values (μM) Kasumi-1) was 0.722 µM; in [3] (setting [13]), 0.912 µM; in experiment [8] (setting [14]) it was 1.81 µM; in [9] (setting [15]), 0.648 µM.

As for `CN(C)CCCCNc1nc(Nc2ccc(C(=O)N3CCOCC3)cc2)c2ncn(C3CCCC3)c2n1` [Compound 182], the IC50 in [2] (histone H1, 15 μM ATP, read-out: IC50 values (μM) CDK2) was found to be 0.005 µM; in experiment [11] it was 0.013 µM. For the same molecule, the EC50 in experiment [10] (72 h, Kasumi-1, Calcein AM, three days, read-out: EC50 values (μM) Kasumi-1) was 1.68 µM; in experiment [3] (72 h, MOLM-13, Calcein AM, three days, read-out: EC50 values (μM) MOLM-13), 0.017 µM; in experiment [4] (EOL1, 72 h, EOL-1, Calcein AM, three days, read-out: EC50 values (μM) EOL-1) it was 0.04 µM; in experiment [5] (MCF7, 72 h, MCF-7, Calcein AM, three days, read-out: EC50 values (μM) MCF-7), 1.59 µM; in experiment [6] (72 h, THP-1, Calcein AM, three days, read-out: EC50 values (μM) THP-1) it was 1.5 µM; in [7] (U-937, 72 h, U937, Calcein AM, three days, read-out: EC50 values (μM) U937), 0.631 µM. Besides, the EC50 was 4.21 µM in [8] (72 h, K562, Calcein AM, three days, read-out: EC50 values (μM) K562) and 0.002 µM in experiment [9] (72 h, MV4-11, Calcein AM, three days after drug addition, read-out: EC50 values (μM) MV4-11).
